The source made the active and inactive calls. No rule for the calls is given here.
Target: Chaperone protein DnaK (Escherichia coli (strain K12)) (UniProt P0A6Y8)
Assay: E. coli DnaK SBD ligand binding – biophysical, NMR, chaperone (AID 1033)
Details: Purified DnaK SBD

Chain of Chaperone protein DnaK (Escherichia coli (strain K12)) (P0A6Y8 whole entry, looked up): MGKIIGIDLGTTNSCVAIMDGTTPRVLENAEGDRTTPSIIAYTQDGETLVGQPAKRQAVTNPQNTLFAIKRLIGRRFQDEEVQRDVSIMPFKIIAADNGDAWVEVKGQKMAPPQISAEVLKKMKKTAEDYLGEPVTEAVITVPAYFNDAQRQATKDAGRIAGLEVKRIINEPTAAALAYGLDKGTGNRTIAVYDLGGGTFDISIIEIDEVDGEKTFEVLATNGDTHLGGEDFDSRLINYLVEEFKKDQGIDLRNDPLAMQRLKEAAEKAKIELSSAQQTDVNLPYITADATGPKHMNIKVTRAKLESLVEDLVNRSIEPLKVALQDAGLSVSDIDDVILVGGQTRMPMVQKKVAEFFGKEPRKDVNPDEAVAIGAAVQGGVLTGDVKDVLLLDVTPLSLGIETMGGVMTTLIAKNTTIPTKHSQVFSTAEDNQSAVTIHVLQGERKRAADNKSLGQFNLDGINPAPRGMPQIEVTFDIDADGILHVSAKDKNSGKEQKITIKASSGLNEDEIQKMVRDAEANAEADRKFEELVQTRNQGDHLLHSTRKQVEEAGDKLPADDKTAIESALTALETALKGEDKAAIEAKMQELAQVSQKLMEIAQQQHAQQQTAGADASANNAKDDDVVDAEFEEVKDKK

Compound | Kd
COc1ccc(C2=CC(=O)C=CC2=O)cc1 | > 4 mM (inactive)
CC1CN(Cc2ccccn2)CCC1=O (centres undefined) | > 4 mM (inactive)
Cc1ccc(S(=O)(=O)CC(N)=O)cc1 | > 4 mM (inactive)
O=C1CC(c2ccccc2)n2ncnc2N1 (centres undefined) | > 4 mM (inactive)
Cc1csc2nc(=O)c3ccccc3n12 | > 4 mM (inactive)
O=C(O)C(O)C(O)C(O)C(O)C(=O)O (centres undefined) | > 4 mM (inactive)
CN1C2C[C@H](OC(=O)[C@H](CO)c3ccccc3)C[C@H]1[C@@H](O)C2 | > 4 mM (inactive)
COc1cc(O)c(C(=O)c2ccccc2)cc1O | > 4 mM (inactive)
CC(CO)NC(=O)C1C=C2c3cccc4[nH]cc(c34)C[C@H]2N(C)C1 (some centres undefined) | > 4 mM (inactive)
Cc1ccc(-c2nnc3sc(-c4ccncc4)nn23)cc1 | > 4 mM (inactive)
COC(=O)Cn1c2ccccc2c2nc(C)sc21 | > 4 mM (inactive)
O=C(Nc1ccccn1)C(=O)N1CCCC1 | > 4 mM (inactive)
Cn1c([O-])c([N+](C)(C)C)c(=O)n(C)c1=O | > 4 mM (inactive)
Nc1ccc(S(=O)(=O)N2CCOCC2)cc1 | > 4 mM (inactive)
O=c1c2ccccc2nc2n1CCS2 | > 4 mM (inactive)
O=C(O)c1ccc2occc2c1 | > 4 mM (inactive)
O=C(O)c1ccc(NCc2cccnc2)cc1 | > 4 mM (inactive)
COc1cc2c(cc1OC)C(C)NCC2 (centres undefined) | > 4 mM (inactive)
Cc1cccc(NC(=O)NC(N)=O)c1 | > 4 mM (inactive)
c1ccc2nc3c(nc2c1)CCc1nonc1-3 | > 4 mM (inactive)
C[C@@H](N)[C@@H](O)c1ccccc1 | > 4 mM (inactive)
Cc1cc(C)c2nncn2n1 | > 4 mM (inactive)
CN(C(=O)c1cc2cccnc2n(C)c1=O)c1ccccc1 | > 4 mM (inactive)
c1ccc2[nH]c(-c3cscn3)nc2c1 | > 4 mM (inactive)

Compound | Kd
CCC(=O)Nc1ccccc1NC(C)=O | > 4 mM (inactive)
Cc1cn2c(-c3cccnc3)nnc2s1 | > 4 mM (inactive)
C/C(N)=C/C(=O)N1CCCCC1 | > 4 mM (inactive)
Cn1cc(Cl)c(C(=O)NC2CCCCCC2)n1 | > 4 mM (inactive)
Nc1nc(-c2ccncc2)cs1 | > 4 mM (inactive)
O=C1CCC(c2cccs2)=NN1 | > 4 mM (inactive)
COC(=O)c1ccc(C(=S)N2CCOCC2)cc1 | > 4 mM (inactive)
Cc1nnc(N2CCc3ccccc3C2)[nH]c1=O | > 4 mM (inactive)
Nc1ccc(N2CCCCC2)cc1 | > 4 mM (inactive)
COC1=CC(=O)C[C@@H](C)[C@]12Oc1c(Cl)c(OC)cc(OC)c1C2=O | > 4 mM (inactive)
COC(=O)c1ccc(/C=C2/NC(=S)NC2=O)cc1 | > 4 mM (inactive)
CC(C)(C)c1cc(NC(=O)c2cccnc2)no1 | > 4 mM (inactive)
CC12CN3CC(C)(CN(C1)C3c1cccs1)C2O (centres undefined) | > 4 mM (inactive)
O=C(O)c1cnc2sc3ccccc3n2c1=O | > 4 mM (inactive)
COc1ccc(/C=C2/C(=O)N=C(N)N2C)cc1OC | > 4 mM (inactive)
COc1cc(C)c2c(c1C=O)Oc1c(c(C)c(O)c3c1C(O)OC3=O)OC2=O (centres undefined) | > 4 mM (inactive)
CC1(C)C(=O)N(O)C(C)(C)C(=O)N1O | > 4 mM (inactive)
c1ccc(Cc2nnc3sc(-c4cccnc4)nn23)cc1 | > 4 mM (inactive)
CCC[C@@H]1CCCCN1 | > 4 mM (inactive)
Cc1cc(S(=O)(=O)N2CCOCC2)ccc1F | > 4 mM (inactive)
Cc1nc2ccc(C(=O)O)cc2[nH]1 | > 4 mM (inactive)
CC1=CCc2c(cc3oc(C)cc(=O)c3c2O)OC1 | > 4 mM (inactive)
CC(C)Oc1ccc(C2CC(=O)NNC2=O)cc1 (centres undefined) | > 4 mM (inactive)
O=C(O)/C=C1\NC(=O)c2ccccc21 | > 4 mM (inactive)

Compound | Kd
CCOC(=O)c1cnc2n(c1=O)CCS2 | > 4 mM (inactive)
CC(=O)OC[C@H]1O[C@@H](Oc2cc(OC(C)=O)c3c(=O)cc(-c4ccc(OC(C)=O)cc4)oc3c2)[C@H](OC(C)=O)[C@@H](OC(C)=O)[C@@H]1OC(C)=O | > 4 mM (inactive)
COc1ccc(-c2cc(=O)c3c(OC)c(OC)c(OC)c(OC)c3o2)cc1 | > 4 mM (inactive)
CCC(CCC(C)[C@H]1CCC2C3CC=C4C[C@@H](O)CC[C@]4(C)C3CC[C@@]21C)C(C)C (some centres undefined) | > 4 mM (inactive)
CC(C)(C#N)O[C@@H]1O[C@H](CO)[C@@H](O)[C@H](O)[C@H]1O | > 4 mM (inactive)
CCn1cnc(C(=O)NC)c1C(=O)NC | > 4 mM (inactive)
Cc1cc(C(=O)N2CCCCCC2)cs1 | > 4 mM (inactive)
O=C1CS/C(=N/N=C2CCCC2)N1 | > 4 mM (inactive)
CC(=O)N1CCc2cc(NC(=O)c3ccc(C)cc3)ccc21 | > 4 mM (inactive)
Cc1sc2nc[nH]c(=S)c2c1C | > 4 mM (inactive)
COc1c(CC=C(C)C)c2c(c3oc(=O)c(-c4ccc(O)cc4)c(O)c13)C=CC(C)(C)O2 | > 4 mM (inactive)
COc1ccc2[nH]cc(CCNC(C)=O)c2c1 | > 4 mM (inactive)
O=S1(=O)NC(=NCc2ccccc2)c2ccccc21 | > 4 mM (inactive)
COc1ccc(C2CC(=O)NN2)cc1OC1CCCC1 (centres undefined) | > 4 mM (inactive)
O=C(NC1=NCCS1)c1ccc2snnc2c1 | > 4 mM (inactive)
NC(=O)NCCCC(N)C(=O)O (centres undefined) | > 4 mM (inactive)
CN1C(=O)CC[C@H]1c1cccnc1 | > 4 mM (inactive)
O=C(O)CCS(=O)(=O)c1ccccc1 | > 4 mM (inactive)
Cn1c(=O)c2ccccc2n(Cc2ccccc2F)c1=O | > 4 mM (inactive)
CS(=O)(=O)N1CCN(C(=O)Cc2cccs2)CC1 | > 4 mM (inactive)
CC(=O)NC1=NN(c2ccccc2)C(=O)C1 | > 4 mM (inactive)
CC(=O)O[C@H]1C[C@@H](OC(C)=O)C(C)(C)C2C[C@@H](OC(C)=O)[C@]3(C)C(CC[C@@]4(C)[C@H](c5ccoc5)OC(=O)[C@H]5O[C@]543)[C@]21C (some centres undefined) | > 4 mM (inactive)
Cc1ccc(C)c(C(=O)NCc2ccncc2)c1 | > 4 mM (inactive)
O=C(O)CC1C(=O)NCCN1Cc1ccccc1 (centres undefined) | > 4 mM (inactive)

Compound | Kd
COC(CC(=O)O)c1nc2ccccc2s1 (centres undefined) | > 4 mM (inactive)
CCOC(=O)c1nc2ccccc2c(=O)n1N | > 4 mM (inactive)
Nc1ccc(Cc2ccc(N)cc2)cc1 | > 4 mM (inactive)
Cc1ccccc1NC(=O)/C=C\C(N)=O | > 4 mM (inactive)
O=c1nc(C(F)(F)F)nc2ccccn12 | > 4 mM (inactive)
CN(C)c1oc(-c2ccccc2Cl)nc1C#N | > 4 mM (inactive)
O=C(/C=C/c1ccc(O)cc1)c1ccc(O)cc1O | > 4 mM (inactive)
COc1ccc(/C=C2/N=C(N)SC2=O)cc1 | > 4 mM (inactive)
C=C1[C@H]2CC[C@@]3(C)[C@H](c4ccoc4)OC(=O)C[C@]13O[C@H]1C[C@H](O)C(C)(C)[C@H](CC(=O)OC)[C@]12C | > 4 mM (inactive)
C=C1C(N)CC2CC1C2(C)C (centres undefined) | > 4 mM (inactive)
Nc1nc(SCc2ccccc2)ns1 | > 4 mM (inactive)
NC(N)=NCCCCN=C(N)N | > 4 mM (inactive)
COc1ccccc1-c1nc(-c2ccc(C)nc2OC)no1 | > 4 mM (inactive)
O=[N+]([O-])c1ccc(/C=N/c2ncn[nH]2)cc1 | > 4 mM (inactive)
CCOC(=O)c1c(C)cc(O)c(C)c1O | > 4 mM (inactive)
Cc1ccccc1OCC(=O)O | > 4 mM (inactive)
COc1ccc2cnn(-c3ccccc3)c(=O)c2c1OC | > 4 mM (inactive)
COc1cc2c(cc1OC)C(=O)OC2 | > 4 mM (inactive)
CSc1nc2cc(F)c(F)cc2n1C | > 4 mM (inactive)
Cn1nnc2cc(C(=O)NC3=NCCS3)ccc21 | > 4 mM (inactive)
CCOC(=O)CNc1ncnc2c1nnn2CC | > 4 mM (inactive)
OCC1Cc2ccccc2CN1 (centres undefined) | > 4 mM (inactive)
Cc1cccc(NS(=O)(=O)c2cccs2)n1 | > 4 mM (inactive)
O=c1c2ccccc2oc2ccccc12 | > 4 mM (inactive)

Compound | Kd
c1ccc(C[N+]23CCN(CC2)c2ccccc23)cc1 | > 4 mM (inactive)
O=C(CSC1=NCCS1)N1CCc2ccccc21 | > 4 mM (inactive)
O=C1N=c2ccccc2=C1c1sc(=S)[nH]c1O | > 4 mM (inactive)
Cc1cc(C)n2c(SCc3cccs3)nnc2n1 | > 4 mM (inactive)
NC(=O)C1CCN(C(=O)CN2CCc3ccccc32)CC1 | > 4 mM (inactive)
COc1ccc([C@H]2COc3c(ccc(O)c3OC)C2)c(OC)c1O | > 4 mM (inactive)
CC(CC(O)C1OC1(C)C)[C@@H]1CCC2(C)C3=CCC4C(C)(C)C(=O)CCC4(C)C3CC[C@@]12C (some centres undefined) | > 4 mM (inactive)
CSc1ccccc1NC(=O)c1cccnc1 | > 4 mM (inactive)
O=c1cc(-c2ccc(O)cc2)oc2cc(O)cc(O)c12 | > 4 mM (inactive)
Cc1ccc(N2C(=O)CCC2=O)cc1 | > 4 mM (inactive)
Cc1[nH]c2ccccc2c1Cc1n[nH]c(=S)n1C | > 4 mM (inactive)
Nc1nc(SCC(=O)c2ccc([N+](=O)[O-])cc2)n[nH]1 | > 4 mM (inactive)
CS(=O)(=O)c1nncn1-c1ccccc1 | > 4 mM (inactive)
CC1CCCN(C/C(O)=C(\C#N)c2nc3ccccc3[nH]2)C1 (centres undefined) | > 4 mM (inactive)
CC(C)c1c(O)ccc2c1CCC1[C@@](C)(C=O)CCC[C@]21C (some centres undefined) | > 4 mM (inactive)
Cc1nccn1CCC(=O)O | > 4 mM (inactive)
Nc1cccc(S(=O)(=O)N2CCCCC2)c1 | > 4 mM (inactive)
O=C1C2CC=CCC2C(=O)N1c1ccccc1 (centres undefined) | > 4 mM (inactive)
COc1cc2ccc(=O)oc2c(OC)c1OC | > 4 mM (inactive)
COCC(=O)Nc1ccc(C)c(Cl)c1 | > 4 mM (inactive)
CC(=O)C1CC[C@H]2C3CC[C@H]4C[C@H](O)CC[C@]4(C)C3CC[C@]12C (some centres undefined) | > 4 mM (inactive)
Fc1ccc(F)c(CN2CCN(c3ncccn3)CC2)c1 | > 4 mM (inactive)
COc1ccc(C(=O)CC(=O)O)c2c1C=CC(C)(C)O2 | > 4 mM (inactive)

Source: PubChem BioAssay AID1033 (Sanford-Burnham Center for Chemical Genomics, 2008)
